{"source": "paper PMC4452934", "about": "(CPT: Pharmacometrics & Systems Pharmacology, 2015)", "assay": "Excretion in bile-duct cannulated rats", "assay_type": "in vivo, rat", "data": [{"compound": "CCn1c(C(=O)N(C2CC2)C2CC2)cc2c3c(ncn3C)c(Nc3cc(C)n(C)n3)nc21", "note": "[BMS-911543]", "values": [{"measurement": "direct excretion in bile and urine", "result": "< 2 % of total clearance"}]}]}
